How the values were obtained:
Assay in all cases: KINOMEscan competition binding
Conditions in all cases: compound 10.0 µM
[1] = biological target: PRKACB (human) (UniProt P22694)
[2] = biological target: PAK4 (human) (UniProt O96013)
[3] = biological target: MYO3B (human) (UniProt Q8WXR4)
[4] = biological target: BRSK1 (human) (UniProt Q8TDC3)
[5] = biological target: MAPK7 (human) (UniProt Q13164)
[6] = biological target: CDK8 (human) (UniProt P49336)
[7] = biological target: CDC2L2 (human) (UniProt Q9UQ88)
[8] = biological target: PLK2 (human) (UniProt Q9NYY3)
[9] = biological target: CLK2 (human) (UniProt P49760)
[10] = biological target: CSNK1A1 (human) (UniProt P48729)
[11] = test system: FLT3 (human), P36888 [R834Q]
[12] = biological target: SRC (human) (UniProt P12931)
[13] = biological target: RIPK4 (human) (UniProt P57078)
[14] = biological target: PRKACA (human) (UniProt P17612)
[15] = biological target: ADCK3 (human) (UniProt Q8NI60)
[16] = biological target: TNIK (human) (UniProt Q9UKE5)
[17] = biological target: MUSK (human) (UniProt O15146)
[18] = biological target: MAP2K5 (human) (UniProt Q13163)
[19] = biological target: FGFR3 (human) (UniProt P22607)
[20] = biological target: TLK2 (human) (UniProt Q86UE8)
[21] = biological target: MAPK11 (human) (UniProt Q15759)
[22] = biological target: CDK16 (human) (UniProt Q00536)
[23] = biological target: YES1 (human) (UniProt P07947)
[24] = biological target: LATS2 (human) (UniProt Q9NRM7)
[25] = biological target: FLT4 (human) (UniProt P35916)
[26] = biological target: PLK1 (human) (UniProt P53350)
[27] = biological target: MYO3A (human) (UniProt Q8NEV4)
[28] = biological target: MYLK3 (human) (UniProt Q32MK0)
[29] = biological target: PRKCH (human) (UniProt P24723)
[30] = biological target: TGFBR2 (human) (UniProt P37173)
[31] = biological target: YSK4 (human) (UniProt Q56UN5)
[32] = biological target: NTRK1 (human) (UniProt P04629)
[33] = biological target: FER (human) (UniProt P16591)
[34] = biological target: TEC (human) (UniProt P42680)
[35] = biological target: STK3 (human) (UniProt Q13188)
[36] = biological target: CAMK2B (human) (UniProt Q13554)
[37] = biological target: AURKA (human) (UniProt O14965)
[38] = biological target: FGFR4 (human) (UniProt P22455)
[39] = biological target: MAP2K7 (human) (UniProt O14733)
[40] = biological target: STK24 (human) (UniProt Q9Y6E0)
[41] = biological target: DDR2 (human) (UniProt Q16832)

Chain of FGFR4 (human) (P22455 whole entry, looked up): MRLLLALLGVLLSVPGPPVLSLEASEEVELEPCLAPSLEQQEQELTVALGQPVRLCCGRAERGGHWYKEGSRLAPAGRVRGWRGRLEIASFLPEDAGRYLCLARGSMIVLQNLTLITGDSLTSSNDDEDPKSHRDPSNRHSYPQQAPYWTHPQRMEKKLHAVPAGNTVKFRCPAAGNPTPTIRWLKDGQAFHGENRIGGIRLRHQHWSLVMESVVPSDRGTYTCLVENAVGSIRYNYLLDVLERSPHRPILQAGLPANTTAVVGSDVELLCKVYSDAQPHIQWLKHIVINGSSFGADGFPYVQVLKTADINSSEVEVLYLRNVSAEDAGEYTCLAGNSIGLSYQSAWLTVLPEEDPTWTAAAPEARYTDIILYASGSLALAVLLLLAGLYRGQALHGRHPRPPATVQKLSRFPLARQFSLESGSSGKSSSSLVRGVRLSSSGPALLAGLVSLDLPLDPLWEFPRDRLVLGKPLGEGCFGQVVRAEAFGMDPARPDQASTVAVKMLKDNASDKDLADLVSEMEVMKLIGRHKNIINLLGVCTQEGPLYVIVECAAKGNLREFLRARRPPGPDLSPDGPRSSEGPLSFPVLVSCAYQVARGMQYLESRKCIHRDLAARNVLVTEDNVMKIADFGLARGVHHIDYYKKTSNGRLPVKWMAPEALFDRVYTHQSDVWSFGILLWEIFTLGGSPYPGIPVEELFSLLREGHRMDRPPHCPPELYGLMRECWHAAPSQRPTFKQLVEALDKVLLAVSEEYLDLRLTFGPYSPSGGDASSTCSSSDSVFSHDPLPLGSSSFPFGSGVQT
Chain of FGFR3 (human) (P22607 whole entry, looked up): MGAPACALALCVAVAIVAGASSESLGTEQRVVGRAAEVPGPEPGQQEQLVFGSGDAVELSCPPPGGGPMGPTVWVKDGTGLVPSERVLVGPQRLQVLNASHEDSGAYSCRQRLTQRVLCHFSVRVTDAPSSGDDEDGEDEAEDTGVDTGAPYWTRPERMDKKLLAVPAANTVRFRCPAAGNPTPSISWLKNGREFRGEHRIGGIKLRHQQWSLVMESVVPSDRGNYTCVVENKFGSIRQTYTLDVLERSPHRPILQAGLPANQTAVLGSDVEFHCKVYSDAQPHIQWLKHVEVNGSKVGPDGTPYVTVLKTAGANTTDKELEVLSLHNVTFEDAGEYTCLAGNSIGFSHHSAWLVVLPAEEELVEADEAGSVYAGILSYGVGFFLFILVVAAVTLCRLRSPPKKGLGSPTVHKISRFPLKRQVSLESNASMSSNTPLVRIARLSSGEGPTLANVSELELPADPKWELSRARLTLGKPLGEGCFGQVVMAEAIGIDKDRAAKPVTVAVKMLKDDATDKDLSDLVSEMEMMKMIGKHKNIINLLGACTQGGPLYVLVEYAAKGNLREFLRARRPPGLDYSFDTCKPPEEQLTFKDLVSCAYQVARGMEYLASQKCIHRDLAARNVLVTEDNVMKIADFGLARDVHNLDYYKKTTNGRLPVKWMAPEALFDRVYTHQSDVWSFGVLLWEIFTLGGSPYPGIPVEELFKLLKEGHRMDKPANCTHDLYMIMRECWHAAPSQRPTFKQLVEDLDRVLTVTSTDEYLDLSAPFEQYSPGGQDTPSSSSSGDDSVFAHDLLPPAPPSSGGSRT
Chain of CDK16 (human) (Q00536 whole entry, looked up): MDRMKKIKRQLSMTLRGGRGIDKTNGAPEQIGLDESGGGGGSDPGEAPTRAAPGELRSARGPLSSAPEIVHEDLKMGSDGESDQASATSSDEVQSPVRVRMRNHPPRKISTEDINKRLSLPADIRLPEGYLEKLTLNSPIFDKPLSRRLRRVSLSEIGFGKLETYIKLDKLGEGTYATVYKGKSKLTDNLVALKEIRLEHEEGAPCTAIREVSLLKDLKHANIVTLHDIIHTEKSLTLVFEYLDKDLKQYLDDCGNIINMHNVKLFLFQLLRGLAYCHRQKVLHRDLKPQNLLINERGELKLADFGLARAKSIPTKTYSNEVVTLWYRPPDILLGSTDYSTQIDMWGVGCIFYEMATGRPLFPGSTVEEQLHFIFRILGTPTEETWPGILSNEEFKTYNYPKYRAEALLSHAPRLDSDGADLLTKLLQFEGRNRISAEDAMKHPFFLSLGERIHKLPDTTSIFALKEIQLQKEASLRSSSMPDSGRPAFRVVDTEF
Chain of PRKCH (human) (P24723 whole entry, looked up): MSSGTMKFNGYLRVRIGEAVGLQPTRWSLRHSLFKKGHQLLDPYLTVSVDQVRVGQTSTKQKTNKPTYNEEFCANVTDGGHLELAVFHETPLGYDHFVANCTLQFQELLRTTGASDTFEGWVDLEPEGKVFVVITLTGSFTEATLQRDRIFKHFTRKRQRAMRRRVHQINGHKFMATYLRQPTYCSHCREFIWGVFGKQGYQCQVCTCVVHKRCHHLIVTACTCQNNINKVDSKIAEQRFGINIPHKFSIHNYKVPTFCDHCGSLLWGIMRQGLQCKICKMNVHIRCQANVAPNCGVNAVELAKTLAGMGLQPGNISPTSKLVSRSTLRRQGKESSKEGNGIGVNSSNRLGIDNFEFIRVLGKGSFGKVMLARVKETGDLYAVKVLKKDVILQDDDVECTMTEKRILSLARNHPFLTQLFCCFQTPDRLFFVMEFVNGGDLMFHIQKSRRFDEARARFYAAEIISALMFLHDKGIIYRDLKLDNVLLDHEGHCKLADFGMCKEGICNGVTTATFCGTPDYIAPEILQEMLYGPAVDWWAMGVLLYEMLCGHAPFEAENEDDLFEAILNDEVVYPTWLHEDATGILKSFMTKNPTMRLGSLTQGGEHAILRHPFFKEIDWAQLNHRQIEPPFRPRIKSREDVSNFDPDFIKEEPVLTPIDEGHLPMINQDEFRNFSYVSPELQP
Chain of PLK1 (human) (P53350 whole entry, looked up): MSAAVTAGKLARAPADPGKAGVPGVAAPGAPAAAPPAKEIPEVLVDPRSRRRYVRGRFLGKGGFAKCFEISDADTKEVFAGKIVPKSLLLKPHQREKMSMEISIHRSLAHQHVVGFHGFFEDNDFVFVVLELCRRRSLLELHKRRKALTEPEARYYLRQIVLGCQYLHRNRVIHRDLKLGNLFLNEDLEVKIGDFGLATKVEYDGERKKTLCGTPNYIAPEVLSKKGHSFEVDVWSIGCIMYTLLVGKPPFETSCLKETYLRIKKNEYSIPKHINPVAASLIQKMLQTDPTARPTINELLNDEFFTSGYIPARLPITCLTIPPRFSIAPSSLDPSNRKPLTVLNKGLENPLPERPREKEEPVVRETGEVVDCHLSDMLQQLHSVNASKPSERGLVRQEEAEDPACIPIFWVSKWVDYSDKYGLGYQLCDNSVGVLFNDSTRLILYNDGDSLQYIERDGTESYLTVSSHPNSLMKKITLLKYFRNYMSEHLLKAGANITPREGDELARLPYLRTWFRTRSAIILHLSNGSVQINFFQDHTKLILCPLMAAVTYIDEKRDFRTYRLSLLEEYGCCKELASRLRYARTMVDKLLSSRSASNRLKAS
Chain of MAPK7 (human) (Q13164 whole entry, looked up): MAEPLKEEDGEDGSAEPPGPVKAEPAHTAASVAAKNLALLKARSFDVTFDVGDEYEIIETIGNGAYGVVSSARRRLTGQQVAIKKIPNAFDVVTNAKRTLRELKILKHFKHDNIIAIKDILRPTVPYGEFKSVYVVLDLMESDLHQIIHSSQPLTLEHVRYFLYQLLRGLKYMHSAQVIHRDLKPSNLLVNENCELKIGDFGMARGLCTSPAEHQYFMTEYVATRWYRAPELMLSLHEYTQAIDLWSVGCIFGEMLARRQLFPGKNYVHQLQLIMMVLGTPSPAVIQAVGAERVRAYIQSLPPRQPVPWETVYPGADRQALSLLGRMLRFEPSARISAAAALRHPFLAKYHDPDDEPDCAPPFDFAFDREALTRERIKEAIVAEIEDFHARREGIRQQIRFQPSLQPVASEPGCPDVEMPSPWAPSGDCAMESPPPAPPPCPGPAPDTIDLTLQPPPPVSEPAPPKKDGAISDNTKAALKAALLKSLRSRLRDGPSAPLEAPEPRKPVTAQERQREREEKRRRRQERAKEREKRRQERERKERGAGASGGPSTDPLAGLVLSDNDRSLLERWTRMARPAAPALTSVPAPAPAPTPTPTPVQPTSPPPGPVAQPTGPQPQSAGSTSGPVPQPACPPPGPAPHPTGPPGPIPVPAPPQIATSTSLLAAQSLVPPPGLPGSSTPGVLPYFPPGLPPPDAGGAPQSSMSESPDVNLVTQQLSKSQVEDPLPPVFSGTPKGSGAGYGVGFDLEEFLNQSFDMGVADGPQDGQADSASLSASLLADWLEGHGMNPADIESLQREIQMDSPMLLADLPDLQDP
Chain of STK24 (human) (Q9Y6E0 whole entry, looked up): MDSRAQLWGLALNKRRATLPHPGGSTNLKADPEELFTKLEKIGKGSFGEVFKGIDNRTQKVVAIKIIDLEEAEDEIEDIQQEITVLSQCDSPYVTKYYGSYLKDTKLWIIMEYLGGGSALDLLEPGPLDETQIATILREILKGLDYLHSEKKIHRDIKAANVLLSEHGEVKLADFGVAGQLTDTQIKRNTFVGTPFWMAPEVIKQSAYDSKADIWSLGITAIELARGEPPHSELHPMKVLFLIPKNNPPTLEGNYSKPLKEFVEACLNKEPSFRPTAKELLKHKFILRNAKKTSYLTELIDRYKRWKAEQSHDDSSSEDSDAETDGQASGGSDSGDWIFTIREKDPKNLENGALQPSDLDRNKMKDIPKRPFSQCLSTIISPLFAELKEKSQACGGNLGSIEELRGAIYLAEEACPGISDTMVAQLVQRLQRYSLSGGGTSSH
Chain of AURKA (human) (O14965 whole entry, looked up): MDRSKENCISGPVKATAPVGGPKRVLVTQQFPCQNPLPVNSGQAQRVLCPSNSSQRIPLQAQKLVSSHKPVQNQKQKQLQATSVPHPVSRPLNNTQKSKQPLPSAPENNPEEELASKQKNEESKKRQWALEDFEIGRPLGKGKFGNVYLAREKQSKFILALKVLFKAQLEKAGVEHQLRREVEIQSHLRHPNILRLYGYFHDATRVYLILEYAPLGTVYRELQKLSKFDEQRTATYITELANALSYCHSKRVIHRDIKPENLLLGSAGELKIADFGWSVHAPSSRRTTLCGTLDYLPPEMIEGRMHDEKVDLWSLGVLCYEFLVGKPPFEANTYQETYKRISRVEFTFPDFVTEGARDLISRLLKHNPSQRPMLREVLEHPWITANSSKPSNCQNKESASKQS

## COCC(=O)NC/C=C/c1ccc2ncnc(Nc3ccc(Oc4ccc(C)nc4)c(C)c3)c2c1
[1]
  kinase still bound, per cent of control: 100%
[2]
  kinase still bound, per cent of control: 87%
[3]
  kinase still bound, per cent of control: 100%
[4]
  kinase still bound, per cent of control: 100%
[5]
  kinase still bound, per cent of control: 100%
[6]
  kinase still bound, per cent of control: 3%
[7]
  kinase still bound, per cent of control: 100%
[8]
  kinase still bound, per cent of control: 100%
[9]
  kinase still bound, per cent of control: 75%
[10]
  kinase still bound, per cent of control: 100%
[11]
  kinase still bound, per cent of control: 100%
[12]
  kinase still bound, per cent of control: 97%
[13]
  kinase still bound, per cent of control: 100%
[14]
  kinase still bound, per cent of control: 100%
[15]
  kinase still bound, per cent of control: 100%
[16]
  kinase still bound, per cent of control: 89%
[17]
  kinase still bound, per cent of control: 100%
[18]
  kinase still bound, per cent of control: 0.2%
[19]
  kinase still bound, per cent of control: 100%
[20]
  kinase still bound, per cent of control: 100%
[21]
  kinase still bound, per cent of control: 100%
[22]
  kinase still bound, per cent of control: 74%
[23]
  kinase still bound, per cent of control: 65%
[24]
  kinase still bound, per cent of control: 100%
[25]
  kinase still bound, per cent of control: 98%
[26]
  kinase still bound, per cent of control: 81%
[27]
  kinase still bound, per cent of control: 75%
[28]
  kinase still bound, per cent of control: 100%
[29]
  kinase still bound, per cent of control: 100%
[30]
  kinase still bound, per cent of control: 94%
[31]
  kinase still bound, per cent of control: 100%
[32]
  kinase still bound, per cent of control: 89%
[33]
  kinase still bound, per cent of control: 100%
[34]
  kinase still bound, per cent of control: 73%
[35]
  kinase still bound, per cent of control: 82%
[36]
  kinase still bound, per cent of control: 88%
[37]
  kinase still bound, per cent of control: 100%
[38]
  kinase still bound, per cent of control: 100%
[39]
  kinase still bound, per cent of control: 100%
[40]
  kinase still bound, per cent of control: 90%
[41]
  kinase still bound, per cent of control: 100%

## COc1cc2ncnc(-n3nc(-c4ccccn4)nc3N)c2cc1OC
[1]
  kinase still bound, per cent of control: 100%
[2]
  kinase still bound, per cent of control: 72%
[3]
  kinase still bound, per cent of control: 100%
[4]
  kinase still bound, per cent of control: 18%
[5]
  kinase still bound, per cent of control: 83%
[6]
  kinase still bound, per cent of control: 100%
[7]
  kinase still bound, per cent of control: 100%
[8]
  kinase still bound, per cent of control: 13%
[9]
  kinase still bound, per cent of control: 1.8%
[10]
  kinase still bound, per cent of control: 1.4%
[11]
  kinase still bound, per cent of control: 22%
[12]
  kinase still bound, per cent of control: 6.7%
[13]
  kinase still bound, per cent of control: 12%
[14]
  kinase still bound, per cent of control: 100%
[15]
  kinase still bound, per cent of control: 10%
[16]
  kinase still bound, per cent of control: 40%
[17]
  kinase still bound, per cent of control: 71%
[18]
  kinase still bound, per cent of control: 1.1%
[19]
  kinase still bound, per cent of control: 84%
[20]
  kinase still bound, per cent of control: 40%
[21]
  kinase still bound, per cent of control: 8.2%
[22]
  kinase still bound, per cent of control: 47%
[23]
  kinase still bound, per cent of control: 77%
[24]
  kinase still bound, per cent of control: 11%
[25]
  kinase still bound, per cent of control: 14%
[26]
  kinase still bound, per cent of control: 22%
[27]
  kinase still bound, per cent of control: 72%
[28]
  kinase still bound, per cent of control: 100%
[29]
  kinase still bound, per cent of control: 100%
[30]
  kinase still bound, per cent of control: 9%
[31]
  kinase still bound, per cent of control: 0.45%
[32]
  kinase still bound, per cent of control: 48%
[33]
  kinase still bound, per cent of control: 93%
[34]
  kinase still bound, per cent of control: 100%
[35]
  kinase still bound, per cent of control: 54%
[36]
  kinase still bound, per cent of control: 37%
[37]
  kinase still bound, per cent of control: 15%
[38]
  kinase still bound, per cent of control: 96%
[39]
  kinase still bound, per cent of control: 77%
[40]
  kinase still bound, per cent of control: 56%
[41]
  kinase still bound, per cent of control: 22%
